# Legend:
# [1] = tested on: MDA-MB-231; experiment: Antiproliferative activity against human MDA-MB-231 cells assessed as inhibition of cell growth incubated for 72 hrs by CellTiter 96 aqueous one solution assay; assay type: functional, cell-based; details: MDA-MB-231, 72 h
# [2] = tested on: MDA-MB-435; experiment: Antiproliferative activity against human MDA-MB-435 cells assessed as inhibition of cell growth incubated for 72 hrs by CellTiter 96 aqueous one solution assay; assay type: functional, cell-based; details: MDA-MB-435, 72 h
# [3] = tested on: OVCAR-3; experiment: Antiproliferative activity against human OVCAR3 cells assessed as inhibition of cell growth incubated for 72 hrs by CellTiter 96 aqueous one solution assay; assay type: functional, cell-based; details: OVCAR-3, 72 h
# [4] = biological target: Histone-lysine N-methyltransferase 2A (Homo sapiens, UniProt Q03164); experiment: Inhibition of human recombinant MLL1 using [3H]S-adenosyl-methionine as substrate
# Chain of Histone-lysine N-methyltransferase 2A (Q03164 1-2718 limits assumed): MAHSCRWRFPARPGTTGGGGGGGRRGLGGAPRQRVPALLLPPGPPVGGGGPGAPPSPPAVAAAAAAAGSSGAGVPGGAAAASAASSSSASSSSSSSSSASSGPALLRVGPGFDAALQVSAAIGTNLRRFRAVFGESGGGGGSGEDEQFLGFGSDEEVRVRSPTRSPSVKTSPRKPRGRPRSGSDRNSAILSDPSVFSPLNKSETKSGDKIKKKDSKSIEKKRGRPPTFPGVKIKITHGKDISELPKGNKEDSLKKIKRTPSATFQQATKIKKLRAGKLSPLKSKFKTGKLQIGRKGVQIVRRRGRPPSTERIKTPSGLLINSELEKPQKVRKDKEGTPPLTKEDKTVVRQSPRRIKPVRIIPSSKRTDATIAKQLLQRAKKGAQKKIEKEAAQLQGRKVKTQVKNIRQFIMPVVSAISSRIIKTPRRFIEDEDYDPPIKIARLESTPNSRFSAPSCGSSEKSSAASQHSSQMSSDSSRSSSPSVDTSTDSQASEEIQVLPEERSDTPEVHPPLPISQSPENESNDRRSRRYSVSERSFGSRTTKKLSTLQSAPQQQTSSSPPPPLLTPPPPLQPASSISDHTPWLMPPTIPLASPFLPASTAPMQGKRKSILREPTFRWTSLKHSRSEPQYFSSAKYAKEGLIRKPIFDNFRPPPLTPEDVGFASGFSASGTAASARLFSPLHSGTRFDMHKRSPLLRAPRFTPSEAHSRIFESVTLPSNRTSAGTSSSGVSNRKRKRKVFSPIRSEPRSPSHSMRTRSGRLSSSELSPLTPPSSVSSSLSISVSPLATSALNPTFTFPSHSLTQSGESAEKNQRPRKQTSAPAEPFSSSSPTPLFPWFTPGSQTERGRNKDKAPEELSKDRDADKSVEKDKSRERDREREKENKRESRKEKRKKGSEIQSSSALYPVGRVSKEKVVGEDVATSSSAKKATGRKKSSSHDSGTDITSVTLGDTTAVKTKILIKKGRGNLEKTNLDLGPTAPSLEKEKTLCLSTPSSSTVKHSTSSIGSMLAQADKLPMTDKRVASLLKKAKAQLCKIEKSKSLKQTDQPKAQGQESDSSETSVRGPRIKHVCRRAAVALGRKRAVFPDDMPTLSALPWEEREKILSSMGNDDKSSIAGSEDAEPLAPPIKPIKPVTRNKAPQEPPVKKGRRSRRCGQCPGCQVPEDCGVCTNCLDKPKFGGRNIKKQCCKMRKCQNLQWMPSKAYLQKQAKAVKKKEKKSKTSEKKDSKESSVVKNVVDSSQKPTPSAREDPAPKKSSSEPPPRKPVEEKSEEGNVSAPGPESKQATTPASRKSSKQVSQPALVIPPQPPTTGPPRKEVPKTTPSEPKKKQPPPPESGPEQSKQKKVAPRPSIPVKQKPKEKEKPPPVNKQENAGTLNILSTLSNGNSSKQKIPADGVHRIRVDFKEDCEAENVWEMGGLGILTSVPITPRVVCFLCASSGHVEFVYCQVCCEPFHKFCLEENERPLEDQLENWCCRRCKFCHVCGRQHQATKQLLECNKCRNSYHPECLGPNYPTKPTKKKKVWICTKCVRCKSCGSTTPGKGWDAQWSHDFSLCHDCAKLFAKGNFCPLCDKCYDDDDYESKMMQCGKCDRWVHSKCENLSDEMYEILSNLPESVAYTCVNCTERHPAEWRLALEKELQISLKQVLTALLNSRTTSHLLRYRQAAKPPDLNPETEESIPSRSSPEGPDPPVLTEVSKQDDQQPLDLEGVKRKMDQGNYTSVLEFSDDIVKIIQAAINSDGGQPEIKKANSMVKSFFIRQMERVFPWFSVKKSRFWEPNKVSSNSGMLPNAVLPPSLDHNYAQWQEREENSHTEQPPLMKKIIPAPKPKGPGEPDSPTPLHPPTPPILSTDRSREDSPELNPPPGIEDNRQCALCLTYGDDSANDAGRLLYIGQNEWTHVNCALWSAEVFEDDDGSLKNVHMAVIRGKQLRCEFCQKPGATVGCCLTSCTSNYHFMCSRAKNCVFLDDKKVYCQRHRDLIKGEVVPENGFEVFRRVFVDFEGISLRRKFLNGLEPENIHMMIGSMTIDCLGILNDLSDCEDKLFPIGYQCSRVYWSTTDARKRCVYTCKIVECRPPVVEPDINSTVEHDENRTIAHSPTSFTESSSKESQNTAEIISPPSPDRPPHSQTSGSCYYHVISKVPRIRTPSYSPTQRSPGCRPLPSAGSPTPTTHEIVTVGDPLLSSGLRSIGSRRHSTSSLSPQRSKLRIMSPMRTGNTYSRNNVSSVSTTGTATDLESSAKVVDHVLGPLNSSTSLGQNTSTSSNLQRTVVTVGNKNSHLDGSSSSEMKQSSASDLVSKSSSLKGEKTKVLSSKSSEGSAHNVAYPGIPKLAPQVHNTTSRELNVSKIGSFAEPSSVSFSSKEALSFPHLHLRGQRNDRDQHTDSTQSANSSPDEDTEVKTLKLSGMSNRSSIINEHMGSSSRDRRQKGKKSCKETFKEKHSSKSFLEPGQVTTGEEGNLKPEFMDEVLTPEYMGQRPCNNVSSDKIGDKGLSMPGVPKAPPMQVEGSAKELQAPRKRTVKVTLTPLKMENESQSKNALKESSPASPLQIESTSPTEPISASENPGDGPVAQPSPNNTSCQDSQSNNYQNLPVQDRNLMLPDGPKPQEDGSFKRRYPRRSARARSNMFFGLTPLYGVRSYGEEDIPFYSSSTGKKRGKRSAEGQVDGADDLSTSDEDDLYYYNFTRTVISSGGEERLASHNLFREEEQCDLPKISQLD
# Chain of Histone-lysine N-methyltransferase 2A (Q03164 2719-3969 limits assumed): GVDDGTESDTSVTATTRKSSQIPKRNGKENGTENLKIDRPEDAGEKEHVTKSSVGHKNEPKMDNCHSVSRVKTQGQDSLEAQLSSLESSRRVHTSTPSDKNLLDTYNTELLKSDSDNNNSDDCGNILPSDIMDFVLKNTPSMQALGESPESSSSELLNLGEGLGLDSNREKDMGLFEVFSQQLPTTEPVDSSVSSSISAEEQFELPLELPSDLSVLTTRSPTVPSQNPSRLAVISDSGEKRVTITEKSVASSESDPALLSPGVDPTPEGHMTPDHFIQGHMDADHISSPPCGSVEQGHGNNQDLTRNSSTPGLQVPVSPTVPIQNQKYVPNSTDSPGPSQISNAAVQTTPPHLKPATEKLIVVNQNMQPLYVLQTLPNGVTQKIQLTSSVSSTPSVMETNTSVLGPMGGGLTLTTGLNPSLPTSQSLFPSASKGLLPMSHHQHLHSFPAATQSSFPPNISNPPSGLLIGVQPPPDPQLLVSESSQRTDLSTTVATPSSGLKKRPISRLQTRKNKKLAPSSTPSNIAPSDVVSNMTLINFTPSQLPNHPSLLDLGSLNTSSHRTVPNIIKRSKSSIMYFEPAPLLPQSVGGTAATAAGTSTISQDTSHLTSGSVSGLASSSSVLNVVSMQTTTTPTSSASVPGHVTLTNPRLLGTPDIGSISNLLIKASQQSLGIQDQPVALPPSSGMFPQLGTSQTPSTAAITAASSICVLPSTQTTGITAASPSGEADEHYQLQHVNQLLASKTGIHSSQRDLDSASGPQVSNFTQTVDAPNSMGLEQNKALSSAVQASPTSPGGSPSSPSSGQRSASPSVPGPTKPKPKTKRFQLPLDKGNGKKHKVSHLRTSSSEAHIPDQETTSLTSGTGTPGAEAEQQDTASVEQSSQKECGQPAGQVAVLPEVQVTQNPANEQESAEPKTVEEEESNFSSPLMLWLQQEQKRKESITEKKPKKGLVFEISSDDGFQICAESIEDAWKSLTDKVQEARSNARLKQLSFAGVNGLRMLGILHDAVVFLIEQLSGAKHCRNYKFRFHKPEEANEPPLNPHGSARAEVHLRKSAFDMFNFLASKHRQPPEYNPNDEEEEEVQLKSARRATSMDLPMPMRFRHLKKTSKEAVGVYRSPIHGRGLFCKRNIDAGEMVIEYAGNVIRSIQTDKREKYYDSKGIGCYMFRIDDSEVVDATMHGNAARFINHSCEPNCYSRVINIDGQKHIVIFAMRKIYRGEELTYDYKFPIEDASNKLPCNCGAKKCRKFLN
IC50 [1] [nM],IC50 [2] [nM],IC50 [3] [nM],Structure (SMILES),IC50 [4] [nM]
46,49,39,CC[C@@]12SS[C@]3(C(=O)N1C)[C@@H](O)[C@]1([C@@]45c6cc(F)ccc6N[C@@H]4N4C(=O)[C@]6(CC)SS[C@]4(C(=O)N6C)[C@H]5O)c4ccccc4N[C@@H]1N3C2=O,–
840,830,920,CC[C@@]12SS[C@]3(C(=O)N1C)[C@@H](O)[C@]1([C@@]45c6cc(F)ccc6N[C@@H]4N4C(=O)[C@]6(CC)SS[C@]4(C(=O)N6C)[C@H]5O)c4cc(F)ccc4N[C@@H]1N3C2=O,–
22,30,30,CC[C@@]12SS[C@]3(C(=O)N1C)[C@@H](O)[C@]1([C@@]45c6ccccc6N[C@@H]4N4C(=O)[C@]6(C)SS[C@]4(C(=O)N6C)[C@H]5O)c4ccccc4N[C@@H]1N3C2=O,–
59,65,75,CN1C(=O)[C@]23SS[C@@]1(C)C(=O)N2[C@H]1Nc2ccc(F)cc2[C@@]1([C@@]12c4cc(F)ccc4N[C@@H]1N1C(=O)[C@]4(C)SS[C@]1(C(=O)N4C)[C@H]2O)[C@@H]3O,–
70,72,100,CC[C@@]12SS[C@]3(C(=O)N1C)[C@@H](O)[C@]1([C@@]45c6cc(F)ccc6N[C@@H]4N4C(=O)[C@]6(C)SS[C@]4(C(=O)N6C)[C@H]5O)c4ccccc4N[C@@H]1N3C2=O,–
37,39,37,CC[C@@]12SS[C@]3(C(=O)N1C)[C@@H](O)[C@]1([C@@]45c6ccccc6N[C@@H]4N4C(=O)[C@]6(C)SS[C@]4(C(=O)N6C)[C@H]5O)c4cc(F)ccc4N[C@@H]1N3C2=O,–
71,88,100,CC[C@@]12SS[C@]3(C(=O)N1C)[C@@H](O)[C@]1([C@@]45c6ccccc6N[C@@H]4N4C(=O)[C@]6(CC)SS[C@]4(C(=O)N6C)[C@H]5O)c4ccccc4N[C@@H]1N3C2=O,–
110,130,180,CC[C@@]12SS[C@]3(C(=O)N1C)[C@@H](O)[C@]1([C@@]45c6cc(F)ccc6N[C@@H]4N4C(=O)[C@]6(C)SS[C@]4(C(=O)N6C)[C@H]5O)c4cc(F)ccc4N[C@@H]1N3C2=O,–
230,240,180,CN1C(=O)[C@]23SS[C@@]1(C)C(=O)N2[C@H]1Nc2ccccc2[C@@]1([C@@]12c4cc(F)ccc4N[C@@H]1N1C(=O)[C@]4(C)SS[C@]1(C(=O)N4C)[C@H]2O)[C@@H]3O,–
170,0.4,5,CC(=O)O[C@H]1C(=O)[C@@]2(C)[C@H]([C@H](OC(=O)c3ccccc3)[C@]3(O)C[C@H](OC(=O)[C@H](O)[C@@H](NC(=O)c4ccccc4)c4ccccc4)C(C)=C1C3(C)C)[C@]1(OC(C)=O)CO[C@@H]1C[C@@H]2O [PACLITAXEL],–

Structure (SMILES),IC50 [1] [nM],IC50 [2] [nM],IC50 [3] [nM],IC50 [4] [nM]
CN1C(=O)[C@]23SS[C@@]1(C)C(=O)N2[C@H]1Nc2ccccc2[C@@]1([C@@]12c4ccccc4N[C@@H]1N1C(=O)[C@]4(C)SS[C@]1(C(=O)N4C)[C@H]2O)[C@@H]3O,43,37,37,800

# — ChEMBL document CHEMBL4414628, “Engineering Fluorine into Verticillins (Epipolythiodioxopiperazine Alkaloids) via Precursor-Directed Biosynthesis” (J Nat Prod, 2019)
